According to US20050233304A1, “Method of screening remedy for renal failure” (YAMANOUCHI PHARMACEUTICAL CO., LTD., priority 2002, published 2005):

Assays:
Type in all cases: cell-based
CTGF mRNA expression = experiment: Inhibition of intrinsic CTGF mRNA expression in primary human proximal renal tubule epithelium cells (RPTEC), real time PCR; settings: 10 μM compound, 24 hours, CTGF/G3PDH, DMSO control = 100%
Protocol: Primary culture cells of human proximal renal tubule epithelium (RPTEC; Asahi Technoglass) were plated at 2×10^5 cells per well into 12-well plates (Asahi Technoglass) using a proliferation medium for kidney epithelial cell use (Burette Kit REGM; Asahi Technoglass). After incubation for 24 hours at 37° C., each of the test compounds obtained in Example 5 (substances which inhibit FGK activity, namely FGK inverse agonists) was added thereto to a final concentration of 10 μM, and then incubated for additional 24 hours at 37° C. Thereafter, the cells were collected and the total RNA was purified using a spin column (RNeasy Mini Kit; Qiagen). Reverse transcription reaction was carried out using 1.5 μg of the total RNA and a reverse transcriptase (PowerScript Transcriptase; BD Biosciences) to obtain cDNA samples. Using each of them as the template, expressed amounts of CTGF and a housekeeping gene of glyceraldehyde 3-phosphate dehydrogenase (to be referred to as G3PDH hereinafter) were measured by real time PCR using PRISM 7700 Sequence Detector (PERKIN ELMER). In the PCR, SYBR Green PCR Master Mix (Applied Biosystems) was used, and after heating at 50° C. (2 minutes) and 95° C. (10 minutes), a cycle of 95° C. (15 seconds)/60° C. (60 seconds) was repeated for 40 times. For the detection of CTGF, an oligonucleotide represented by SEQ ID NO:17 was used as the forward primer, and an oligonucleotide represented by SEQ ID NO:18 was used as the reverse primer. For the detection of G3PDH, an oligonucleotide represented by SEQ ID NO:19 was used as the forward primer and an oligonucleotide represented by SEQ ID NO:20 was used as the reverse primer. A value calculated by dividing the expressed amount of CTGF by the expressed amount of G3PDH, both obtained by the PCR, was defined as the CTGF expression quantity per unit RNA quantity. Also, as a control of the compound treatment, the CTGF expression quantity per unit RNA quantity when the same volume of dimethyl sulfoxide alone was added was regarded as 100%. The inhibitory activity of CTGF expression obtained by the assay (inhibitory activity at a compound concentration of 10 μM) is shown in Table 1.

human FGK = biological target: T1, human FGK (Homo sapiens, UniProt Q9BXA5, A284G/P282A); experiment: Screening of substances inhibiting FGK activity: pEF-BOS-Gqi + pSRE-luc luciferase reporter in HEK293 cells transfected with human FGK; settings: pEF-BOS-Gqi and human FGK plasmid, 24 hours with compound, DMSO control = 100%, read-out: Example 5 Inhibition of pGqi + pSRE-luc reporter activity IC50
T1 construct: A complete cDNA coding for the FGK of the present invention was obtained by PCR using a human kidney cDNA; expressed in transfected cells; host or cells: HEK293 cells (ATCC), transient transfection with FuGENE6
T1 sequence (Q9BXA5 5-334 P282A/A284G): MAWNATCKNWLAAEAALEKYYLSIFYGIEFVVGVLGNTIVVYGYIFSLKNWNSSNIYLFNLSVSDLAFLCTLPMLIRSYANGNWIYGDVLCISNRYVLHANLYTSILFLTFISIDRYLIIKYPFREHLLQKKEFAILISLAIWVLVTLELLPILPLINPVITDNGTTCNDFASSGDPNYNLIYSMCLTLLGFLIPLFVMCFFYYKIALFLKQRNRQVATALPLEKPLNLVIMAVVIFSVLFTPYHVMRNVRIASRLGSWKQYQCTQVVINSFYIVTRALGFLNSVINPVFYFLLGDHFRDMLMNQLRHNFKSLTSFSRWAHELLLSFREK
Protocol: An expression plasmid used in the Example for expressing a chimeric protein of Gq and Gi was prepared by cloning, a gene (hereinafter, to be referred to as Gqi gene) constructed by replacing 5 amino acids in the Gq C-terminal side (Glu-Tyr-Asn-Leu-Val; the amino acid sequence represented by SEQ ID NO:15) with 5 amino acids in the Gi C-terminal side (Asp-Cys-Gly-Leu-Phe; the amino acid sequence represented by SEQ ID NO:16) in accordance with the method of Conklin, B. R. et al. (Nature, 363, 274-276, 1993) into the plasmid pEF-BOS-dhfr. The constructed plasmid was named pEF-BOS-Gqi.
As the illustrative method, firstly, using Dulbecco's modified Eagle's medium (DMEM) containing 10% fetal bovine serum, HEK293 cells (obtained from ATCC) were dispensed in 1×10^5 cells per well portions into a 24-well plate (Asahi Technbglass) and cultured for 24 hours. Then transfection of 0.05 μg of a reporter plasmid pSRE-luc in which a serum response sequence was inserted into upstream of a luciferase gene (PathDetect™ SRE cis-Reporting System; Stratagene), 0.05 μg of pEF-BOS-Gqi and 0.5 μg at the maximum of a human FGK expression plasmid which is 0.6 μg in total per well was carried out using a transfection reagent (FuGENE6; Boehringer-Roche). Cells transfected with the pcDNA3.1 vector alone without containing FGK, together with the reporter plasmid and pEF-BOS-Gqi, was used as the control. Other conditions and measurement of the reporter activity were as described in Example 3. Increase in the reporter activity by the expression of FGK was observed. Additionally, dose-dependent activation by FGK was also observed.
Screening of a test substance was carried out using the screening system which uses changes in FGK activity as the index, constructed in Example 4.
Using 10% fetal bovine serum-containing Dulbecco's modified Eag;e's medium(DMEM),HEK293 cells(obtained from ATCC) were inoculated in 1×10^4 cells per well portions into a 96-well plate (Asahi Technoglass) and cultured at 37° C. for 24 hours. Transfection of 0.01 μg of the reporter plasmid pSRE-luc (Example 4), 0.03 μg of pEF-BOS-Gqi and 0.02 μg of a human FGK expression plasmid which is 0.06 μg in total per well was carried out using a transfection reagent (FuGENE6; Boehringer-Roche). After 6 hours of incubation at 37° C., a dimethyl sulfoxide solution of each test compound was added to become a final concentration of 30 μM, 10 μM, 3 μM, […], 0.3 μM or 0.1 μM, and then incubated at 37° C. for additional 24 hours. Thereafter, the reporter activity was measured to determine 50% activity inhibition concentration (IC50) of each test compound. As a control of the compound treatment, reporter activity when the same volume of dimethyl sulfoxide alone was added was regarded as 100%. Other conditions and measurement of reporter activity were as described in Example 4.

[1] = tested on: CTGF promoter activation by FGK; experiment: Inhibition of CTGF promoter activation by FGK: pCTGF-luc reporter in HEK293 cells transfected with human FGK; settings: HEK293 cells transfected with pCTGF-luc and human FGK plasmid; 24 hours with compound; DMSO control = 100%; read-out: Example 7 Inhibition of pCTGF-luc activity IC50
Protocol: Using Dulbecco's modified Eagle's medium (DMEM) containing 10% fetal bovine serum, HEK293 cells (obtained from ATCC) were dispensed in 1×10^5 cells per well portions into a 24-well plate (Asahi Technoglass) and cultured at 37° C. for 24 hours. Transfection of 0.1 μg of a reporter plasmid and 0.5 μg at the maximum of a human FGK expression plasmid which is 0.6 μg in total per well was carried out using a transfection reagent (FuGENE6; Boehringer-Roche) in accordance with the instructions attached thereto. In this case, the amount of the transfected genes in each of the all wells was adjusted to 0.6 μg in total per well by adding a plasmid vector (pcDNA3.1; Invitrogen). Cells transfected with the pcDNA3.1 vector alone without containing FGK, together with the reporter plasmid, was used as the control. The medium was discarded 24 hours after transfection, and the residue was lysed by adding 100 μl per well of a cell lysis buffer. A […] portion of the lysate was mixed with 100 μl of a luciferin substrate solution and allowed to undergo the reaction to be measured using a luminometer (ML3000; Dynatech Laboratories). Activation of the CTGF promoter and COLIA2 promoter by the expression of FGK was observed. Additionslly, dose-dependent activation by FGK was also observed.
Screening of a test compound constructed in Example 3 was carried out using the CTGF promoter activation system by FGK.
HEK293 cells (obtained from ATCC) were plated at 1×10^4 cells per well into 96-well plates (Asahi Technoglass) in Dulbecco's modified Eagle's medium containing 10% fetal bovine serum (DMEM). After incubation for 24 hours at 37° C., cells were transfected with 0.02 μg of pCTGF-luc (cf. Example 2) and 0.02 μg of a human FGK expression plasmid which is 0.04 μg in total per well was carried out using a transfection reagent (FuGENE6; Boehringer-Roche). After incubation for 6 hours at 37° C., a dimethyl sulfoxide solution of each test compound was added thereto to become a final concentration of 30 µM, 10 μM, 3 μM, […], 0.3 μM or […], and then incubated at 37° C. for additional 24 hours. Thereafter, the reporter activity was measured to determine 50% activity inhibition concentration (IC50) of each test compound. As a control of the compound treatment, reporter activity when the same volume of dimethyl sulfoxide alone was added was regarded as 100%. Other conditions and measurement of reporter activity were as described in Example 3. Substances which inhibit CTGF promoter activation by FGK were selected, and the substances having an IC50 value of 10 μM or less were shown in Table 1. It was confirmed that a substance which inhibits CTGF expression by the assay system, namely a substance useful as a renal failure treating agent can be certainly be screened.

CC(=O)Nc1ccc(-c2csc(Nc3cccc(C(F)(F)F)c3)n2)cc1 [No 4, N-[4-(2-{[3-(trifluoromethyl)phenyl]amino}-1,3-thiazol-4-yl)phenyl]acetamide]
Example 6 Inhibition Intrinsic CTGF mRNA Expression at 10 μM (CTGF mRNA expression): 65%
IC50 (human FGK): 3.9 µM
IC50 [1]: 3.6 µM

CC(=O)Nc1nc(C)c(-c2csc(Nc3ccc(O)cc3)n2)s1 [No 5, N-{2-[(4-hydroxyphenyl)amino]-4′-methyl-4,5′-bi-1,3-thiazol-2′-yl}acetamide hydrobromate]
Example 6 Inhibition Intrinsic CTGF mRNA Expression at 10 μM (CTGF mRNA expression): 81%
IC50 (human FGK): 2.5 µM
IC50 [1]: 1.8 µM

COc1ccc(Cl)cc1Nc1nc(-c2cccs2)cs1 [No 2, N-(5-chloro-2-methoxyphenyl)-4-(2-thienyl)-1,3-thiazole-2-amine]
Example 6 Inhibition Intrinsic CTGF mRNA Expression at 10 μM (CTGF mRNA expression): 72%
IC50 (human FGK): 4.6 µM
IC50 [1]: 16.1 µM

CCOc1ccc(Nc2nc(-c3sc(N)nc3C)cs2)cc1 [No 1, N^2-(4-ethoxyphenyl)-4′-methyl-4,5′-bi-1,3-thiazole-2,2′-diamine]
Example 6 Inhibition Intrinsic CTGF mRNA Expression at 10 μM (CTGF mRNA expression): 62%
IC50 (human FGK): 6.1 µM
IC50 [1]: 14.1 µM

CC(=O)Nc1nc(C)c(-c2csc(Nc3cccc(C)c3)n2)s1 [No 3, N-[4′-methyl-2-[(3-methylphenyl)amino]-4,5′-bi-1,3-thiazol-2′-yl]acetamide hydrobromate]
Example 6 Inhibition Intrinsic CTGF mRNA Expression at 10 μM (CTGF mRNA expression): 79%
IC50 (human FGK): 0.6 µM
IC50 [1]: 2.6 µM

CCOC(=O)c1c(C)nn(-c2ccc(NC(=O)c3ccccc3C(=O)O)cc2)c1C [No 6, 2-[({4-[4-(ethoxycarbonyl)-3,5-dimethyl-1H-pyrazol-1-yl]phenyl}amino)carbonyl]benzoic acid]
Example 6 Inhibition Intrinsic CTGF mRNA Expression at 10 μM (CTGF mRNA expression): 35%
IC50 (human FGK): 6.8 µM
IC50 [1]: 3.8 µM

Cc1cc(C(=O)C(F)(F)F)c(C)n1-c1ccc(NC(=O)c2ccccc2F)cc1 [No 7, N-{4-[2,5-dimethyl-3-(trifluoroacetyl)-1H-pyrrol-1-yl]phenyl}-2-fluorobenzamide]
Example 6 Inhibition Intrinsic CTGF mRNA Expression at 10 μM (CTGF mRNA expression): 36%
IC50 (human FGK): 3.1 µM
IC50 [1]: 1.7 µM
